Source: PubChem BioAssay (NCI)
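Abbreviation: GI50, concentration required for 50% inhibition of growth. TGI: total growth inhibition.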

Tests used:
Assay in all cases: growth of human tumour cells (NCI), 384-well format
[1] = test system: NCI/ADR-RES ovarian
[2] = test system: MDA-MB-231 breast
[3] = test system: KM12 colon
[4] = test system: NCI-H226 lung
[5] = test system: NCI-H23 lung
[6] = test system: SNB-19 CNS
[7] = test system: SN12C renal
[8] = test system: BT-549 breast
[9] = test system: CCRF-CEM leukemia
[10] = test system: HCT-15 colon
[11] = test system: SK-OV-3 ovarian
[12] = test system: SNB-75 CNS
[13] = test system: MOLT-4 leukemia
[14] = test system: T-47D breast
[15] = test system: SF-539 CNS
[16] = test system: SF-268 CNS
[17] = test system: HS 578T breast
[18] = test system: LOX IMVI melanoma
[19] = test system: SF-295 CNS
[20] = test system: SK-MEL-5 melanoma
[21] = test system: HCT-116 colon
[22] = test system: SR leukemia
[23] = test system: A549 NSCLC
[24] = test system: DU-145 prostate
[25] = test system: HOP-62 NSCLC
[26] = test system: NCI-H322M lung
[27] = test system: UACC-62 melanoma
[28] = test system: CAKI-1 renal
[29] = test system: RXF 393 renal
[30] = test system: MALME-3M melanoma
[31] = test system: ACHN renal
[32] = test system: MDA-MB-468 breast
[33] = test system: EKVX NSCLC
[34] = test system: IGROV1 ovarian
[35] = test system: OVCAR-8 ovarian
[36] = test system: UACC-257 melanoma
[37] = test system: SK-MEL-28 melanoma
[38] = test system: COLO 205 colon
[39] = test system: NCI-H460 NSCLC
[40] = test system: PC-3 prostate
[41] = test system: TK-10 renal
[42] = test system: UO-31 renal
[43] = test system: RPMI-8226 leukemia
[44] = test system: NCI-H522 lung
[45] = test system: HL-60(TB) leukemia
[46] = test system: MDA-MB-435 melanoma
[47] = test system: OVCAR-3 ovarian
[48] = test system: HCC-2998 colon
[49] = test system: OVCAR-4 ovarian
[50] = test system: SW-620 colon
[51] = test system: HOP-92 NSCLC
[52] = test system: U251 glioblastoma
[53] = test system: M14 melanoma
[54] = test system: K-562 leukemia
[55] = test system: A498 renal
[56] = test system: 786-0 renal
[57] = test system: HT29 colon

**Q.** What does the source list for `CCC(Sc1nnc2c3ccccc3n(CC)c2n1)C(=O)Nc1ccccc1OC` (centres undefined)?
**A.** GI50 [1]: > 100 µM; TGI [1]: > 100 µM; GI50 [2]: > 100 µM; TGI [2]: > 100 µM; GI50 [3]: > 100 µM; TGI [3]: > 100 µM; GI50 [4]: > 100 µM; TGI [4]: > 100 µM; GI50 [5]: 1.67 µM; TGI [5]: 5.23 µM; GI50 [6]: > 100 µM; TGI [6]: > 100 µM; GI50 [7]: 1.18 µM; TGI [7]: 5.17 µM; GI50 [8]: > 100 µM; TGI [8]: > 100 µM; GI50 [9]: > 100 µM; TGI [9]: > 100 µM; GI50 [10]: 7.59 µM; TGI [10]: > 100 µM; GI50 [11]: > 100 µM; TGI [11]: > 100 µM; GI50 [12]: > 100 µM; TGI [12]: > 100 µM; GI50 [13]: 3.51 µM; TGI [13]: 79.7 µM; GI50 [14]: > 100 µM; TGI [14]: > 100 µM; GI50 [15]: > 100 µM; TGI [15]: > 100 µM; GI50 [16]: > 100 µM; TGI [16]: > 100 µM; GI50 [17]: > 100 µM; TGI [17]: > 100 µM; GI50 [18]: > 100 µM; TGI [18]: > 100 µM; GI50 [19]: > 100 µM; TGI [19]: > 100 µM; GI50 [20]: 5.43 µM; TGI [20]: > 100 µM; GI50 [21]: > 100 µM; TGI [21]: > 100 µM; GI50 [22]: 3.3 µM; TGI [22]: 5.99 µM; GI50 [23]: 4.27 µM; TGI [23]: > 100 µM; GI50 [24]: > 100 µM; TGI [24]: > 100 µM; GI50 [25]: 3.56 µM; TGI [25]: > 100 µM; GI50 [26]: 4.91 µM; TGI [26]: > 100 µM; GI50 [27]: > 100 µM; TGI [27]: > 100 µM; GI50 [28]: 0.384 µM; TGI [28]: 2.65 µM; GI50 [29]: > 100 µM; TGI [29]: > 100 µM; GI50 [30]: > 100 µM; TGI [30]: > 100 µM; GI50 [31]: > 100 µM; TGI [31]: > 100 µM; GI50 [32]: 0.229 µM; TGI [32]: 0.475 µM; GI50 [33]: 0.547 µM; TGI [33]: 5.44 µM; GI50 [34]: > 100 µM; TGI [34]: > 100 µM; GI50 [35]: > 100 µM; TGI [35]: > 100 µM; GI50 [36]: > 100 µM; TGI [36]: > 100 µM; GI50 [37]: > 100 µM; TGI [37]: > 100 µM; GI50 [38]: > 100 µM; TGI [38]: > 100 µM; GI50 [39]: > 100 µM; TGI [39]: > 100 µM; GI50 [40]: > 100 µM; TGI [40]: > 100 µM; GI50 [41]: > 100 µM; TGI [41]: > 100 µM; GI50 [42]: 3.74 µM; TGI [42]: > 100 µM; GI50 [43]: 0.451 µM; TGI [43]: 1.92 µM; GI50 [44]: > 100 µM; TGI [44]: > 100 µM; GI50 [45]: 0.444 µM; TGI [45]: 1.48 µM; GI50 [46]: > 100 µM; TGI [46]: > 100 µM; GI50 [47]: 3.28 µM; TGI [47]: > 100 µM; GI50 [48]: > 100 µM; TGI [48]: > 100 µM; GI50 [49]: > 100 µM; TGI [49]: > 100 µM; GI50 [50]: > 100 µM; TGI [50]: > 100 µM; GI50 [51]: > 100 µM; TGI [51]: > 100 µM; GI50 [52]: > 100 µM; TGI [52]: > 100 µM; GI50 [53]: > 100 µM; TGI [53]: > 100 µM; GI50 [54]: 7.45 µM; TGI [54]: > 100 µM; GI50 [55]: 4.74 µM; TGI [55]: > 100 µM; GI50 [56]: > 100 µM; TGI [56]: > 100 µM; GI50 [57]: > 100 µM; TGI [57]: > 100 µM
